Reference: the NIST ThermoML archive (doi:10.1021/acs.jced.8b00975)

Experiment: xn = mol fraction of the nth substance listed
Conditions: Liquid, Vibrating tube method

C=C(C)C(=O)OCCN(C)C [2-(dimethylamino)ethyl methylpropenoate] + CCCCCO
mass density [kg/m3]
Conditions | 100 kPa | 5000 kPa | 10000 kPa | 15000 kPa | 20000 kPa | 25000 kPa | 30000 kPa | 35000 kPa
303.15 K, x1 = 0.0307 | – | – | – | – | 828.2 | 831.19 | 834.07 | 836.92
303.15 K, x1 = 0.0604 | – | – | – | – | 833.79 | 836.81 | 839.72 | 842.58
303.15 K, x1 = 0.1009 | – | – | – | – | 841.01 | 844.07 | 847.03 | 849.93
303.15 K, x1 = 0.2025 | – | – | – | – | 857.79 | 860.91 | 863.93 | 866.88
303.15 K, x1 = 0.3 | – | – | – | – | 871.95 | 875.13 | 878.24 | 881.32
303.15 K, x1 = 0.3999 | – | – | – | – | 884.85 | 888.08 | 891.24 | 894.35
303.15 K, x1 = 0.4506 | – | – | – | – | 890.84 | 894.11 | 897.3 | 900.41
303.15 K, x1 = 0.5037 | – | – | – | – | 896.76 | 900.07 | 903.29 | 906.44
303.15 K, x1 = 0.5495 | – | – | – | – | 901.5 | 904.82 | 908.07 | 911.28
303.15 K, x1 = 0.6012 | – | – | – | – | 906.65 | 909.98 | 913.25 | 916.5
303.15 K, x1 = 0.7014 | – | – | – | – | 915.83 | 919.2 | 922.54 | 925.89
303.15 K, x1 = 0.8023 | – | – | – | – | 924.05 | 927.5 | 930.88 | 934.23
303.15 K, x1 = 0.9025 | – | – | – | – | 931.37 | 934.86 | 938.3 | 941.71
303.15 K, x1 = 0.9307 | – | – | – | – | 933.38 | 936.89 | 940.33 | 943.73
303.15 K, x1 = 0.9625 | – | – | – | – | 935.55 | 939.05 | 942.5 | 945.92
313.15 K, x1 = 0.0305 | 806.61 | 810.57 | 814.26 | 817.73 | 821.04 | 824.24 | 827.39 | 830.53
313.15 K, x1 = 0.0602 | 812.04 | 816 | 819.71 | 823.21 | 826.55 | 829.77 | 832.92 | 836.03
313.15 K, x1 = 0.1004 | 819.08 | 823.09 | 826.82 | 830.32 | 833.66 | 836.89 | 840.06 | 843.25
313.15 K, x1 = 0.2011 | 835.38 | 839.35 | 843.09 | 846.64 | 850.04 | 853.32 | 856.53 | 859.71
313.15 K, x1 = 0.2999 | 849.45 | 853.38 | 857.13 | 860.71 | 864.15 | 867.48 | 870.73 | 873.91
313.15 K, x1 = 0.4001 | 862.05 | 866.03 | 869.81 | 873.43 | 876.91 | 880.27 | 883.53 | 886.72
313.15 K, x1 = 0.4514 | 867.85 | 871.88 | 875.71 | 879.36 | 882.87 | 886.24 | 889.51 | 892.71
313.15 K, x1 = 0.498 | 872.93 | 876.96 | 880.8 | 884.47 | 888 | 891.4 | 894.7 | 897.93
313.15 K, x1 = 0.5495 | 878.17 | 882.25 | 886.12 | 889.81 | 893.35 | 896.76 | 900.07 | 903.31
313.15 K, x1 = 0.5984 | 882.9 | 887.01 | 890.9 | 894.6 | 898.15 | 901.58 | 904.91 | 908.18
313.15 K, x1 = 0.7004 | 892.03 | 896.09 | 900.01 | 903.79 | 907.43 | 910.93 | 914.29 | 917.51
313.15 K, x1 = 0.8001 | 900.15 | 904.24 | 908.18 | 911.97 | 915.62 | 919.14 | 922.52 | 925.76
313.15 K, x1 = 0.8995 | 907.42 | 911.49 | 915.45 | 919.28 | 922.99 | 926.57 | 930.03 | 933.36
313.15 K, x1 = 0.9328 | 909.62 | 913.75 | 917.76 | 921.63 | 925.35 | 928.93 | 932.36 | 935.63
313.15 K, x1 = 0.9616 | 911.53 | 915.62 | 919.61 | 923.5 | 927.26 | 930.88 | 934.33 | 937.6
